The source of these data is US10259815B2, “Gabaergic ligands and their uses” (UWM Research Foundation, Inc., priority 2015, dated 2019).

For data set [1], the target named is T1, α1, β3, γ2 GABA A receptor (Homo sapiens, UniProt P14867+P18507).
T1 construct: host or cells: HEK-293, stably transfected
The experiment in a line: FLIPR functional assay, α1 GABAA receptor subtype in HEK-293 cells. Format: cell-based. An excerpt:
(§1) The FLIPR functional assay is used to determine the EC50 at the α1 and α3 GABAA receptor subtypes. A high EC50 for the α1 subtype would indicate a low chance of adverse effects, including sedation, ataxia, and muscle relaxation. A low α3 EC50 would indicate potential effectiveness as an anxiolytic, antihyperalgesic, and likely an anticonvulsant. See, for example, Liu et al. (Assay. Drug. Dev. Technol. 2008, 6, 781-6) and Joesch et al. (J. Biomol. Screen. 2008, 13, 218-28).
(§2) Compounds tested were synthesized internally and solubilized in DMSO at a 10 mM concentration. GABA was purchase from Sigma (#A2129) and prepared at 100 mM in water.
(§3) HEK-293 cells were stably transfected with the α1, β3, γ2 GABA A receptor subunits (GenBank accession numbers NM_000806.3, NM_000814.5, and NM_198904.1, respectively) or α3, β3, γ2 (NM_000808 for α3) where obtained from ChanTest Co. (Catalog # CT6216 and CT6218, respectively).
(§4) Cells were cultivated in Dulbeco's Modified Eagle's Medium (DMEM, Sigma D5796) supplemented with 10% Fetal Bovine Serum (FBS, Gibco 16000), 0.5 mg/mL Geneticin (Gibco), 0.04 mg/mL Hygromycin B (Gibco), 0.1 mg/mL Zeocin (Gibco) and 20 mM HEPES (Sigma). Cells were grown at 37° C. in a humidified atmosphere of 5% CO2. In the experiments described here frozen cells were used. For this purpose, cells were gown and maintained under confluency during 2-3 weeks and then frozen down at different cell densities using Recovery™ Cell Culture Freezing Medium (Gibco).
(§5) 18 hours prior to the experiment, cells were quickly thawed at 37° C. and seeded on Poly-D-Lys 384 plates (Corning 356663) at a density of 25,000 cells/well and in 25 μL of complete cell medium as described above.
(§6) Membrane potential changes induced by the flux of ions through the receptor were measured as relative fluorescence units (RFU) using the Fluorometric Imaging Plate Reader (FLIPR Tetra®, Molecular Devices) and the FLIPR Membrane Potential Blue Assay kit (Molecular Devices). Prior to the addition of the compounds the medium was removed and cells were loaded with 20 μL of dye prepared in assay buffer composed of Hank's Balanced Salt Solution (HBSS with Ca^+2 and Mg^+2; Gibco 14025) with 20 mM Hepes. After 1 hour of incubation at room temperature (RT), the plate was placed into the FLIPR instrument and experiments were run adding first 10 μL from the 1st addition plate (compound plate) and after a 3 minutes incubation adding 20 μL of the 2nd addition or agonist plate. The response to this last GABA addition was monitored for another 3 minutes. […]
(§7) Data Analysis. The difference between the maximum and the minimum (Max-Min) fluorescence reached during the first addition or read interval and the second read interval were used for data analysis (agonist and potentiation, respectively). […]

Data set [2] has as its target T2, α3, β3, γ2 GABA A receptor (Homo sapiens, UniProt P18507+P34903).
T2 construct: host or cells: HEK-293, stably transfected
The experiment in a line: FLIPR functional assay, α3 GABAA receptor subtype in HEK-293 cells. Format: cell-based. The conditions noted are these: α3 Binding EC50, FLIPR membrane potential, potentiation of GABA EC20.
Description: as §1, §2, §3, §4, §5, §6, §7

A short description of data set [3]: Liver microsomal stability, human. The class given is in vitro ADME. The conditions noted are these: 37° C., 4 μM compound, 30 minutes. As to the method: (§8) In vitro metabolism studies were done in mouse, rat, human, and dogs cells (TABLE 2).
(§9) In vitro liver microsomal studies were completed to measure the stability of the compounds against degradation in various species' liver microsomes.
(§10) Compound was incubated in hepatic microsomes over a 30-minute incubation period at 37° C. Incubations both with and without NADPH (2 mM) were performed in a 96-well plate format. The reaction was initiated with the addition of substrate and was terminated by protein precipitation. All incubations were performed using a final substrate concentration of 4 μM in 50 mM sodium phosphate buffer, pH 7.4. The final organic solvent content was 0.5% acetonitrile and 0.02% DMSO. The amount of enzyme present was fixed at 1.11 mg/mL protein irrespective of the species of microsomes used. Samples were analyzed by LC/MS-MS to determine the percent loss in the NAPDH incubations relative to the NADPH free incubations.

Data set [4] is described as follows: Liver microsomal stability, dog. Format: in vitro ADME. As to conditions: 37° C., 4 μM compound, 30 minutes. As to the method: as §8, §9, §10
In general terms: Liver microsomes are a subcellular fraction often used to study metabolism.

Data set [5] can be described thus: Liver microsomal stability, mouse. The class given is in vitro ADME. The conditions noted are these: 37° C., 4 μM compound, 30 minutes. The procedure: as §8, §9, §10
Data set [6] in a line: Liver microsomal stability, rat. The class given is in vitro ADME. As to conditions: 37° C., 4 μM compound, 30 minutes. The procedure:
as §8, §9, §10

Another data set has as its system Male NIH Swiss mice. The experiment in a line: Rotorod assay (ataxia). Format: in vivo. As to conditions: 30 mg/kg i.p., 30 minutes prior, 4 r.p.m., two minutes. The procedure:
Male NIH Swiss mice (n=10) were dosed i.p. with vehicle (1% carboxymethyl cellulose) or one of the test compounds (10 or 30 mg/kg) 30 minutes prior to being tested on the rotorod. Mice were placed on a rod for two minutes at 4 revolutions per minute. […] Mice that fell twice failed the testing.
The rotorod assay (FIG. 5) is used to determine the ataxic effects, generally stemming from the α1 subtype, that compounds have in test subjects. Mice are trained to run on a slow, rotating cylinder for two minutes, and failure to stay on the rod may be due to ataxia. […] Each set of compounds were tested against a vehicle.
Male NIH Swiss mice (n=10/group) were trained on a rotorod (Ugo Basile 7650) at 4 r.p.m. for two minutes per training session prior to testing. On test day, mice were dosed i.p. with either vehicle (1% carboxymethyl cellulose) or one of the test compounds (10 or 30 mg/kg) 30 minutes prior to testing.
In general terms: In the rotarod test animals must keep their balance on a rotating rod.

In another data set the test system is Sprague Dawley male rats. The experiment in a line: Mechanical hyperalgesia (von Frey) in CFA-induced inflammatory pain rat model. The class given is in vivo. The procedure:
Raw data (paw withdrawal threshold, expressed in g of von Frey filament) was converted to a maximal possible effect value according the following equation: % MPE=[(test threshold(g)−control threshold(g)/(pre-CFA threshold−control threshold)]×100.
Complete Freund's adjuvant (CFA) contains Mycobacterium butyricum, inducing inflammation and an increase in paw thickness. 0.1 mL of CFA was injected in the right hind paw of Sprague Dawley male rats under isoflurane anaesthesia.
Mechanical hyperalgesia. Mechanical hyperalgesia was measured 3 days after CFA treatment. Rats (n=6) were placed in elevated boxes with a mesh floor. Von Frey filaments (expressed in g) were applied perpendicularly to the hindpaws, starting with the lowest filament (1.4 g) then increased until hindpaw withdrawal was observed. After each measurement, rats received the next dose of drug (every 20 min) until the maximum threshold (26 g) was observed. For the antagonist study, rats were pretreated with the benzodiazepine site antagonist flumazenil (10 min) and then received the next dose of drug (every 20 min) until the pre-CFA threshold was observed.
Drugs. The following drugs were used: HZ166, KRM-II-18B, and KRM-II-81, and were dissolved in a mixture containing 20% Dimethyl sulfoxide (DMSO), 10% Emulphor-620 (Rhodia Inc.), and 70% of 0.9% saline. Flumazenil (purchased from Cayman Chemical Company, MI) was dissolved in a mixture containing 10% ethanol, 40% propylene glycol, and 50% sterile water. Midazolam (Akorn, Inc.) was dissolved in 0.9% saline. Doses were expressed as the weight of the drug in milligrams per kilogram of body weight and drugs were administered intraperitoneally.

The next data set deals with Male Sprague-Dawley rats. The experiment in a line: von Frey filament test in spinal nerve ligated (SNL) rats. Format: in vivo. The procedure:
FIG. 11 is a graph of time versus withdrawal threshold for KRM-II-81, Gabapentin, and vehicle, showing the effect of KRM-II-81 on antihyperalgesia in the von Frey filament assay. Male Sprague-Dawley rats (n=5) were dosed i.p. either vehicle, KRM-II-81 (30 mg/kg), or gabapentin (50 mg/kg) and tested in the von Frey filament assay after undergoing SNL 90 days prior. Results were analyzed using ANOVA (Dunnett's test: *P<0.05).
The von Frey filament test is used to test for antihyperalgesia, or an increased sensitivity to pain. […] The von Frey filaments are used to apply pressure to the forelimbs of test subjects at set amounts. When pressure becomes too great, the forelimb is withdrawn and the amount of force applied recorded. The spinal nerve ligation induced hyperalgesia, reducing the amount of force a limb can take before being withdrawn.
Test compounds were given to test the effectiveness of combating the hyperalgesic effect of SNL. Male Sprague-Dawley rats went through SNL at least 90 days prior to the von Frey testing. Rats were first tested without given an injection to determine a baseline. Following baseline establishment, rats (n=5 for all groups) were dosed i.p. with vehicle (1% carboxymethyl cellulose), KRM-II-81 (30 mg/kg), or gabapentin (50 mg/kg). Subjects were then tested every hour for four hours to determine the antihyperalgesic effect of the test compounds. For testing, pressure using von Frey filaments was applied to the forelimb of the rat. Pressure was increased until the limb was withdrawn, and the amount of pressure was recorded.

pEC50: −log10 of the molar value. Bounds are passed on as bounds.

T2 sequence (P34903 29-492): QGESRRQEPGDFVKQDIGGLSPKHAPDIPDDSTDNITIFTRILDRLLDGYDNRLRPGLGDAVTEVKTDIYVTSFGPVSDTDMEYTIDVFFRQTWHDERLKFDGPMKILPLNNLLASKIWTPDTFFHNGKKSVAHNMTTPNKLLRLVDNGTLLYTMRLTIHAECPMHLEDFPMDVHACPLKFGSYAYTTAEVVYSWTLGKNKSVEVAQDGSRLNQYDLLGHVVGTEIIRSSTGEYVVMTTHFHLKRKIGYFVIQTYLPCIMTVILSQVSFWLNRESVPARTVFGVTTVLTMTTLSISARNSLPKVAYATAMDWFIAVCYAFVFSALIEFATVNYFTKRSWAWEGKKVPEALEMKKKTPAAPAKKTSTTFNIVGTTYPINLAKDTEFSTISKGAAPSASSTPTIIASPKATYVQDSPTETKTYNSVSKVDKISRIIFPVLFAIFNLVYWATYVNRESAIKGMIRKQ
T2 sequence (P28472 26-473 partner): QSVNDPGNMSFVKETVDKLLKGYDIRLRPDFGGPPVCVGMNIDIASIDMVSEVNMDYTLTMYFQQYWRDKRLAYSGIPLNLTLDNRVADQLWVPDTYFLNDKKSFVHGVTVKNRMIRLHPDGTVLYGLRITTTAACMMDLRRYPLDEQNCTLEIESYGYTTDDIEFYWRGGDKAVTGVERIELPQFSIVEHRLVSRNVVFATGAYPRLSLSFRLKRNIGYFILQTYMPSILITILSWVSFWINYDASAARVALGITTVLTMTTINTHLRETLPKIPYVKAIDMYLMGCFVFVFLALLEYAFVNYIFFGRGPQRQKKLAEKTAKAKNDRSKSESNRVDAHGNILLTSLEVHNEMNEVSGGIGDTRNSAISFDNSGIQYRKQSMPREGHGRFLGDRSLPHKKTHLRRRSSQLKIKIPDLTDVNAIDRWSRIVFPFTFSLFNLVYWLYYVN
T2 sequence (P18507 40-475): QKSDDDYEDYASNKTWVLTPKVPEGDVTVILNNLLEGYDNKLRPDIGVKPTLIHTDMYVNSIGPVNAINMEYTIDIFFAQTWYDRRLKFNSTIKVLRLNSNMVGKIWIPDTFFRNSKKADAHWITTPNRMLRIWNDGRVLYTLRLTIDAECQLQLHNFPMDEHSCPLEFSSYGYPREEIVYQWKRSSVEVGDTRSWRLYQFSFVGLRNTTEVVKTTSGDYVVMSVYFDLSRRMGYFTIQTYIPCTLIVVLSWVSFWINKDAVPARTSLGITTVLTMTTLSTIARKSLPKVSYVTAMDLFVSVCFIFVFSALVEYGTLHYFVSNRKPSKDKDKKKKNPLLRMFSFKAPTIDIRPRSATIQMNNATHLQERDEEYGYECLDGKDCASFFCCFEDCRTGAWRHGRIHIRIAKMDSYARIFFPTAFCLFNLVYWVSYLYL
T1 sequence (P14867 28-456): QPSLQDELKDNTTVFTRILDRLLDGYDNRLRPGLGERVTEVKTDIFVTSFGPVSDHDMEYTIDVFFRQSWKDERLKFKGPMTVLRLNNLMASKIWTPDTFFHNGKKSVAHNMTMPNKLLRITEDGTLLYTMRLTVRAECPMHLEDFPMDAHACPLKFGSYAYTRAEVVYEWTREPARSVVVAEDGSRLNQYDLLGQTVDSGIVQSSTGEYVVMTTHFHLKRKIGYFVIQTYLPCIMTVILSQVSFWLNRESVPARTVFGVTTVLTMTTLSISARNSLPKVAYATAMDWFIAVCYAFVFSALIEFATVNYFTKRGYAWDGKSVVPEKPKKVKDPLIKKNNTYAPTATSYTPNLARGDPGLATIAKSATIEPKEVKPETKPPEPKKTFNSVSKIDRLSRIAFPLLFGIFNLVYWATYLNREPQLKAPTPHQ
T1 sequence (P28472 26-473 partner): as the sequence (P28472 26-473 partner) above
T1 sequence (P18507 40-475): as the sequence (P18507 40-475) above

The melting point is the temperature of the solid-liquid transition. For `Brc1ccc2c(c1)C(c1ccccc1)=NCc1c(-c3cnco3)ncn1-2`, the melting point lay within 225 to 227 °C. The compound `Cc1ncoc1-c1ncn2c1CN=C(c1ccccn1)c1cc(Br)ccc1-2` registered a melting point of 228 to 230 °C.

For `Cc1ncoc1-c1ncn2c1CN=C(c1ccccc1)c1cc(Br)ccc1-2`, the melting point was in the range of 236 to 238 °C.

Compound `Cc1ncoc1-c1ncn2c1CN=C(c1ccccc1F)c1cc(Br)ccc1-2` returned a melting point of 138 to 140 °C.

For `C[Si](C)(C)C#Cc1ccc2c(c1)C(c1ccccn1)=NCc1c(-c3cnco3)ncn1-2`, the melting point was 208 to 210 °C. With `Cc1ncoc1-c1ncn2c1CN=C(c1ccccc1)c1cc(C#C[Si](C)(C)C)ccc1-2`, the melting point fell in the range of 130 to 132 °C. As to `Cc1ncoc1-c1ncn2c1CN=C(c1ccccc1F)c1cc(C#C[Si](C)(C)C)ccc1-2`, the melting point was in the range of 209 to 211 °C. `C#Cc1ccc2c(c1)C(c1ccccn1)=NCc1c(-c3ocnc3C)ncn1-2` returned a melting point of 209 to 211 °C.

In turn, `C#Cc1ccc2c(c1)C(c1ccccc1)=NCc1c(-c3ocnc3C)ncn1-2` displayed a melting point of 228 to 230 °C. `C#Cc1ccc2c(c1)C(c1ccccc1F)=NCc1c(-c3ocnc3C)ncn1-2` returned a melting point of 145 to 147 °C. By pEC50 is commonly meant the negative decadic logarithm of the EC50, by convention in mol/L. `C#Cc1ccc2c(c1)C(c1ccccc1)=NCc1c(-c3cnco3)ncn1-2` [KRM-II-82, 5-(8-Ethynyl-6-phenyl-4H-benzo[f]imidazo[1,5-a][1,4]diazepin-3-yl)oxazole]: the results for the pEC50 in [1] and in data set [2] were below 4.70 and 7.49, respectively. Also, the “Human Liver microsome stability (reported in % remaining)” value in data set [3] was 74 % remaining. Moreover, in [4], the “Dog Liver microsome stability (reported in % remaining)” value is listed as 86 % remaining. Moreover, in data set [5], the “Mouse Liver microsome stability (reported in % remaining)” value was 73 % remaining. In addition, in data set [6], the “Rat Liver microsome stability (reported in % remaining)” value was found to be 72 % remaining. Besides, the “rotorod performance at 30 mg/kg” value in the data set with Male NIH Swiss mice is “failed multiple times”.

For `Fc1ccccc1C1=NCc2c(-c3cnco3)ncn2-c2ccc(Br)cc21` [SH-I-085, 5-(8-Bromo-6-(2-fluorophenyl)-4H-benzo[f]imidazo[1,5-a][1,4]diazepin-3-yl)oxazole], the melting point was in the range of 190 to 192 °C. The pEC50 in [1] was below 4.70. Besides, the negative logarithm of the EC50 (pEC50) in data set [2] is 7.60. Further, the “Human Liver microsome stability (reported in % remaining)” value in data set [3] is given as 62 % remaining. Moreover, in data set [4], the “Dog Liver microsome stability (reported in % remaining)” value came out at 77 % remaining. The “Mouse Liver microsome stability (reported in % remaining)” value in data set [5] was 67 % remaining. The “Rat Liver microsome stability (reported in % remaining)” value in data set [6] worked out at 61 % remaining. Turning to `CCOC(=O)c1ncn2c1CN(C)C(=O)c1cc(F)ccc1-2` [flumazenil, reference compound], in the data set with Sprague Dawley male rats (flumazenil pretreatment 10 min), the “shift of PAM dose-effect curves by antagonist pretreatment” value is “shifted the dose-effect curves of PAMs rightward”.

In the case of `NCC1(CC(=O)O)CCCCC1` [gabapentin, reference compound], in the data set with Male Sprague-Dawley rats (KRM-II-81 30 mg/kg, gabapentin 50 mg/kg i.p.), the “antihyperalgesic activity, von Frey after SNL” value is given as “active as antihyperalgesics”. The “pain threshold (force before removing paw)” value in the data set with Male Sprague-Dawley rats (from 1-2 hours, vehicle ˜5 g) is listed as around 12 g. Regarding `Cc1ncc2n1-c1ccc(Cl)cc1C(c1ccccc1F)=NC2` [midazolam, reference compound], in the data set with Sprague Dawley male rats (cumulative i.p. dosing, 3 days after CFA), the “mechanical hyperalgesia in CFA-induced inflammatory pain” value is “dose-dependently attenuated mechanical hyperalgesia”.
